We go through two compounds from patent publication US11279707B2, “NEK inhibitors and methods of use” (DANA-FARBER CANCER INSTITUTE, INC., priority 2017, dated 2022).

Common to all, as to assay type: biochemical
One assay deals with T1, DMPK (Homo sapiens, UniProt Q09013).
T1 sequence (Q09013 1-629): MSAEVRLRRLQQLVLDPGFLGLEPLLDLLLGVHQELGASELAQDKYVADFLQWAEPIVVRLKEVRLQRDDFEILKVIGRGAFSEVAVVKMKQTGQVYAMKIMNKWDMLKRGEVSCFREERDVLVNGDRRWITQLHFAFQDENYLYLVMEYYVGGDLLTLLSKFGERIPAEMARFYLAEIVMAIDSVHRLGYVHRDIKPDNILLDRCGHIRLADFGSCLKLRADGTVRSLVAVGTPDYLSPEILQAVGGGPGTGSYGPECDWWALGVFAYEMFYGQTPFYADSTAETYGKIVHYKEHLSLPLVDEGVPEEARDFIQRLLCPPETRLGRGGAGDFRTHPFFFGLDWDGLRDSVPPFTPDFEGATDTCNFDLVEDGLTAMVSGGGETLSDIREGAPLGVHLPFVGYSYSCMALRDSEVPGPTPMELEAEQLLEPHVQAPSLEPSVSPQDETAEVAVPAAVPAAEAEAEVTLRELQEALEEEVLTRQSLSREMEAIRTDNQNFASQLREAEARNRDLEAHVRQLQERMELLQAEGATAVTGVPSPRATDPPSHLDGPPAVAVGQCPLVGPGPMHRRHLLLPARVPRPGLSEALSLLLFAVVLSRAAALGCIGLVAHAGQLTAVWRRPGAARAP
Description: kinase inhibition, DMPK.

The target of another assay is NEK6 (Homo sapiens, UniProt Q9HC98). The assay is described as follows: kinase inhibition, NEK6.
The target of the next assay is SLK (Homo sapiens, UniProt Q9H2G2). Description: kinase inhibition, SLK.
The target of a further assay is T2, NEK9 (Homo sapiens, UniProt Q8TD19).
T2 sequence (Q8TD19 1-979): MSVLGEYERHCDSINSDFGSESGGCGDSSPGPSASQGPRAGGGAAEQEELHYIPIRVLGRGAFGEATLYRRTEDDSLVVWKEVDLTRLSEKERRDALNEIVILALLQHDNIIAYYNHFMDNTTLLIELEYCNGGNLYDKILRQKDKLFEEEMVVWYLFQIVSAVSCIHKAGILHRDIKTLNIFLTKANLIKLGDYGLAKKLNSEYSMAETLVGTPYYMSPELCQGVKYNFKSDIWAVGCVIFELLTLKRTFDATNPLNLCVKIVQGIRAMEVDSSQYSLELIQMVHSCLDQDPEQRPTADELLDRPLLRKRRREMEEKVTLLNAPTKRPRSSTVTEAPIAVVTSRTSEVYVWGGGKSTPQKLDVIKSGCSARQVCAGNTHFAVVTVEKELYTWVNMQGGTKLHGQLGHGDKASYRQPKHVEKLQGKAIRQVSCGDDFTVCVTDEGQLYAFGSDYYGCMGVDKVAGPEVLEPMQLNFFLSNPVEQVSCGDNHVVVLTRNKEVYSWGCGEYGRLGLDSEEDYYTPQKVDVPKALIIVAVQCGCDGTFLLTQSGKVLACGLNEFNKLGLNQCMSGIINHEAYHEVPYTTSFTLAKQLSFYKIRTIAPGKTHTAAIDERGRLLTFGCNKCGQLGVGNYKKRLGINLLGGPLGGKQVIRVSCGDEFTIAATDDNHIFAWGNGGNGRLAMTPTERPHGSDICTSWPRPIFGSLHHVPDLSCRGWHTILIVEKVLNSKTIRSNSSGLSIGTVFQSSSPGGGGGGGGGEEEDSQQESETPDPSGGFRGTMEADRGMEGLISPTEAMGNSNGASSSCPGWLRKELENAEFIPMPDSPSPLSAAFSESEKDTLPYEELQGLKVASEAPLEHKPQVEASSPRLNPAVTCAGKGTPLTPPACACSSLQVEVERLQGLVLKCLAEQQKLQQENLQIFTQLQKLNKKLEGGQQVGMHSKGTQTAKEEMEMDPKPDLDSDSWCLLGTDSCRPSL
The assay is described as follows: kinase inhibition, NEK9.

The target in another assay is T3, NEK2 (Homo sapiens, UniProt P51955).
T3 sequence (P51955 1-445): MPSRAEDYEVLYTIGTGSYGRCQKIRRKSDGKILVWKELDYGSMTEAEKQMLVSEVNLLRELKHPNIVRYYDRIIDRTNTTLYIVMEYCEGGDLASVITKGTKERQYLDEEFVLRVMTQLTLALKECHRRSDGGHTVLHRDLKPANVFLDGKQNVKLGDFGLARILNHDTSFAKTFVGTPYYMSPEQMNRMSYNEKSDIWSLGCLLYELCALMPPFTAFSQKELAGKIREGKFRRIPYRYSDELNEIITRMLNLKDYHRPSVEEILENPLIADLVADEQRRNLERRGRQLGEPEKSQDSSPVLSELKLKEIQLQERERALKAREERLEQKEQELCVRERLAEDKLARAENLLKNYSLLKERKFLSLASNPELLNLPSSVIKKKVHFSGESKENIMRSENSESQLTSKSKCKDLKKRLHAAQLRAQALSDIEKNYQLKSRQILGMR
Description: kinase inhibition, NEK2.

Another assay concerns the target CLK. The assay is described as follows: kinase inhibition, CLK.
For a further assay, the target named is T4, MERTK (Homo sapiens, UniProt Q12866).
T4 sequence (Q12866 21-999): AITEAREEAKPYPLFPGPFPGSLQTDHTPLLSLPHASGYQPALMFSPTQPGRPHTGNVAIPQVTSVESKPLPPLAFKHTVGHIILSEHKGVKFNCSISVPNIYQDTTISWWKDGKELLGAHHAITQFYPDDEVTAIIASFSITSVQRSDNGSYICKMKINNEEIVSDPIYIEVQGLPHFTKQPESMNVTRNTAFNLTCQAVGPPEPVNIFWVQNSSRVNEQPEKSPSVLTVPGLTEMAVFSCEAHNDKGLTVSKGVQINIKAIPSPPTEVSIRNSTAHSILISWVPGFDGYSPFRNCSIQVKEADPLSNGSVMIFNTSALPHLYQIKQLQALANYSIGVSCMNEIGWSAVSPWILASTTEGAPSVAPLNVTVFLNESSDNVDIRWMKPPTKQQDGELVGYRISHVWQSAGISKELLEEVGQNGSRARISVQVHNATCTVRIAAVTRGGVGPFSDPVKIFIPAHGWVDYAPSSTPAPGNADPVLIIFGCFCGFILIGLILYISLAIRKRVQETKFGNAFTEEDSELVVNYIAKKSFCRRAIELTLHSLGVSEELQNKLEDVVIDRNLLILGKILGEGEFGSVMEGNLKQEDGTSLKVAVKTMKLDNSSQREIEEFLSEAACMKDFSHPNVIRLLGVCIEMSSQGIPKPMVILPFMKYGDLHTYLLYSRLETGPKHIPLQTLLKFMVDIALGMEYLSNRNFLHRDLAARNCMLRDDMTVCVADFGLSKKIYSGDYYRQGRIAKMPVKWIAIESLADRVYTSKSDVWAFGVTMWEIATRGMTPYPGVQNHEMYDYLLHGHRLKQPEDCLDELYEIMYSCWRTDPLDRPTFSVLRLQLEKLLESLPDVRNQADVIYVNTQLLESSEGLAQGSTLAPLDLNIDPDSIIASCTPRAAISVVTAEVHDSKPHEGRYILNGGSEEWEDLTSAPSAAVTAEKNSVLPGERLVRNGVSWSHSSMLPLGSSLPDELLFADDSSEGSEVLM
Description: kinase inhibition, MERTK.

A further assay deals with T5, AXL (Homo sapiens, UniProt P30530).
T5 sequence (P30530 26-894): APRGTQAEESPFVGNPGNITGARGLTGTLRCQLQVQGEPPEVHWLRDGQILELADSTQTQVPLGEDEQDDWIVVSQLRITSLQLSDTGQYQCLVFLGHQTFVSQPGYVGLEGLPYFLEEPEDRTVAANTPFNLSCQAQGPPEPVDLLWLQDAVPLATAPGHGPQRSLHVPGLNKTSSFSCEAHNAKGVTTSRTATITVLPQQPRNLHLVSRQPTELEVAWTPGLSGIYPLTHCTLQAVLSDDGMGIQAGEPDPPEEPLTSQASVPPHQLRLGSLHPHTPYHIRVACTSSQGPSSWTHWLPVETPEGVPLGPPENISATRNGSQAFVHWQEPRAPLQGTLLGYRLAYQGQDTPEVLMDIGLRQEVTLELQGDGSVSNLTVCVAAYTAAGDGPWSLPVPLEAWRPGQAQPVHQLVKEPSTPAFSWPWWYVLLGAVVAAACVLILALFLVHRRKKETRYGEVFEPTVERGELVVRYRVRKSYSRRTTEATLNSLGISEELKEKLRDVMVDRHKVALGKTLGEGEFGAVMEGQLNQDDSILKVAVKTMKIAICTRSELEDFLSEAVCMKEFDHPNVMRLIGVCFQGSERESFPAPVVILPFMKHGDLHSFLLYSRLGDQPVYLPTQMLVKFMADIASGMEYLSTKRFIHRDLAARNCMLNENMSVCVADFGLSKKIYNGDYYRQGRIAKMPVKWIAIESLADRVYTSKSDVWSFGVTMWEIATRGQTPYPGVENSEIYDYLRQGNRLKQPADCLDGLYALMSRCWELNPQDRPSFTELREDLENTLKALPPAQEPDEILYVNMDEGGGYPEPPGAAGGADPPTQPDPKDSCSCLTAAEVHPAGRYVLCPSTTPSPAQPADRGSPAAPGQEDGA
The assay is described as follows: kinase inhibition, AXL.

The target in another assay is NEK7 (Homo sapiens, UniProt Q8TDX7). Description: kinase inhibition, NEK7.
The target in another assay is GSK3B (Homo sapiens, UniProt P49841). Description: kinase inhibition, GSK3B.
A further assay has as its target RSK1 (Homo sapiens, UniProt Q15418). Description: kinase inhibition, RSK1.

Sequence of NEK6 (Q9HC98 whole entry, species assumed): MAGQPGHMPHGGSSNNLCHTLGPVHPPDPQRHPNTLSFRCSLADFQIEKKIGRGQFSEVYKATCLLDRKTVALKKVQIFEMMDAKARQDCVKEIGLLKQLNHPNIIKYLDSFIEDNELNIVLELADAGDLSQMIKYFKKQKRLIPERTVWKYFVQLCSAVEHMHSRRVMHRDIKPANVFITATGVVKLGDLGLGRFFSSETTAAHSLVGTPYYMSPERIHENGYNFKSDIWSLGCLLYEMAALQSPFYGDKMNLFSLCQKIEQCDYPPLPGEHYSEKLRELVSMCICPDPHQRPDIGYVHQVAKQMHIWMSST
Sequence of SLK (Q9H2G2 whole entry): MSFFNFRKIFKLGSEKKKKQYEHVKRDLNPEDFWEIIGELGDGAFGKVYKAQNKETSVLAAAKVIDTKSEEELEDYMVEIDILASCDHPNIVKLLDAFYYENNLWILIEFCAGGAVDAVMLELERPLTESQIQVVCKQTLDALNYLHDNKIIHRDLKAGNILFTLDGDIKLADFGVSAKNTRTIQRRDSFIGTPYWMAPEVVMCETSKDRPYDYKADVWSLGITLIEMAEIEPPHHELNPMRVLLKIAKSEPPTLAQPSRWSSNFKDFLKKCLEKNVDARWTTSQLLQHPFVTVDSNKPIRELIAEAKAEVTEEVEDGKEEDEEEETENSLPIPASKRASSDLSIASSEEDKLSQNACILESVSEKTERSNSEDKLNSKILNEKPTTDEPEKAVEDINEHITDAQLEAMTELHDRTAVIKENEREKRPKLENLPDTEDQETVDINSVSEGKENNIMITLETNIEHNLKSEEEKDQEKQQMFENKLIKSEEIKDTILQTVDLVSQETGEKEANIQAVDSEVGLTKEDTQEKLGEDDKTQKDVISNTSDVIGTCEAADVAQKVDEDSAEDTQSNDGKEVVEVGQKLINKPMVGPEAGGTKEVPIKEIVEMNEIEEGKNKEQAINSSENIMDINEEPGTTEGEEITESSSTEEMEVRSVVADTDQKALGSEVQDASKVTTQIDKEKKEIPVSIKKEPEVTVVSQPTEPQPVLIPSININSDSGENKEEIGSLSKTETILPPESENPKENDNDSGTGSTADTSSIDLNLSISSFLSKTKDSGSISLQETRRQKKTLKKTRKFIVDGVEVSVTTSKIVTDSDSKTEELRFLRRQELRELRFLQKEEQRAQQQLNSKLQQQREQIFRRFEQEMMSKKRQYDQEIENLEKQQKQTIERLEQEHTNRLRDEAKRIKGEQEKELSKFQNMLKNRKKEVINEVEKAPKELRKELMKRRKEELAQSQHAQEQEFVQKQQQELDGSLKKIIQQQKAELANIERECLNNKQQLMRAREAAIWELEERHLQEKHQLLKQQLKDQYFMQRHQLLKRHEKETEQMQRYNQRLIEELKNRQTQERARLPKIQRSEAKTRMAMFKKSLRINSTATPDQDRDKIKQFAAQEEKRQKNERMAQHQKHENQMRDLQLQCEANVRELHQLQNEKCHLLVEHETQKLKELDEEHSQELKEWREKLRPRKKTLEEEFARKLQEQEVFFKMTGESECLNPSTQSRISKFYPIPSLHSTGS
Sequence of NEK7 (Q8TDX7 whole entry, species assumed): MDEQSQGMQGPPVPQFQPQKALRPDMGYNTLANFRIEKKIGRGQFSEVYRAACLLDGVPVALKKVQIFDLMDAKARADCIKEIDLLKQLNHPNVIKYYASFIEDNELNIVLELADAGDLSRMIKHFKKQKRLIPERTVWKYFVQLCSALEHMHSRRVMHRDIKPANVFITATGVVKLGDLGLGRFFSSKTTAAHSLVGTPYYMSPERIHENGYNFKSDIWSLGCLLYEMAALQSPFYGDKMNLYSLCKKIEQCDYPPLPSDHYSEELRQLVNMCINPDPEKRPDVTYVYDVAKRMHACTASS
Sequence of RSK1 (Q15418 whole entry, species assumed): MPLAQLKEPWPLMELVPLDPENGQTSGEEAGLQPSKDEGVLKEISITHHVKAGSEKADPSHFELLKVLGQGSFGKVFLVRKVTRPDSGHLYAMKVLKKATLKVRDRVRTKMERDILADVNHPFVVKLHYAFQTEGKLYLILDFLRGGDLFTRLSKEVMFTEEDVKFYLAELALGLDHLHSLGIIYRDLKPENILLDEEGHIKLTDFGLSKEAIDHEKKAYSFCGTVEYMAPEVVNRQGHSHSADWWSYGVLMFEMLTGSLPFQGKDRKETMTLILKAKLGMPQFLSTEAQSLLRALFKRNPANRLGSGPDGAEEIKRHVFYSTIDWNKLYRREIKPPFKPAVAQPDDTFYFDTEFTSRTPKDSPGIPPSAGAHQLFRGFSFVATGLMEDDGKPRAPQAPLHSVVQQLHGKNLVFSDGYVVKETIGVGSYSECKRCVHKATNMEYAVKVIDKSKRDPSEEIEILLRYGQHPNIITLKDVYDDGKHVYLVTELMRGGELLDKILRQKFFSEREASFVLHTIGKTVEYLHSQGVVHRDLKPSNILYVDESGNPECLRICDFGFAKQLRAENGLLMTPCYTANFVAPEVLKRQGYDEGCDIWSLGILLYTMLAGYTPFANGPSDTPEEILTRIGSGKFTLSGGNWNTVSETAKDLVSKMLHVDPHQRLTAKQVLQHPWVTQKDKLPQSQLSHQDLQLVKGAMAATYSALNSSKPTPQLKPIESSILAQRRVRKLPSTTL
Sequence of GSK3B (P49841 whole entry, species assumed): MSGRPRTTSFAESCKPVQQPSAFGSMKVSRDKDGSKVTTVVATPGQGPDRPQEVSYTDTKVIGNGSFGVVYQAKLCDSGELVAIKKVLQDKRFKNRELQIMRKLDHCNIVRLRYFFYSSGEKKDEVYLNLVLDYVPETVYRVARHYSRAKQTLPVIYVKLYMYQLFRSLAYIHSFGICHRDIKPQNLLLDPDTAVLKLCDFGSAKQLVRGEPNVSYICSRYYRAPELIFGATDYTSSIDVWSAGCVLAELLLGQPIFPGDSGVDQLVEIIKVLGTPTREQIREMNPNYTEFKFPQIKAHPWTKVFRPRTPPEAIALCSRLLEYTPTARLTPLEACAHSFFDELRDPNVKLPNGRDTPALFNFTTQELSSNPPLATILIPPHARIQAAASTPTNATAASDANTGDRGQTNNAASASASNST

Consider `Cn1c(=O)c2cc3ccccc3n2c2nc(Nc3ccc(N4CCC(N5CCOCC5)CC4)cc3)ncc21` [Compound I-17], for which the IC50 on DMPK is 50 to 250 nM; at NEK6 it was 250 to 1000 nM; on SLK it was 50 to 250 nM; on NEK9 it was not above 50 nM; against NEK2 it was not above 50 nM; at CLK, 50 to 250 nM.
For the compound `CN1CCN(c2ccc(Nc3ncc4c(n3)N3c5ccccc5CC3C(=O)N4C)cc2)CC1` (stereo not drawn) [Compound I-7], the IC50 was 250 to 1000 nM at MERTK; 250 to 1000 nM against AXL; 1000 to 5000 nM on NEK6; 250 to 1000 nM at NEK7; 250 to 1000 nM against GSK3B; not above 50 nM at NEK9. The values for the half-maximal inhibitory concentration (IC50) against RSK1, against NEK2 and at CLK were 250 to 1000 nM, 50 to 250 nM and 50 to 250 nM, respectively.

For orientation: IC50 means the concentration that gives 50% inhibition. Higher therefore signals lower potency.
